Data on 21 molecules can be found in ChEMBL document CHEMBL6182839, “Exploration of the cytotoxic and microtubule disruption potential of novel imidazo[1,5-a]pyridine-based chalcones” (RSC Med Chem, 2025).

Series [1] deals with HepG2. Kind of series: Cytotoxicity against human HepG2 cells assessed as inhibition of cell growth incubated for 48 hrs by MTT assay. The format is functional, cell-based. The settings on record: HepG2, 48 h.
For series [2], the system named is MDA-MB-231. Kind of series: Induction of intracellular ROS generation in human MDA-MB-231 cells at 5 to 10 uM incubated for 24 hrs by H2DCFDA staining based flow cytometric analysis. The format is functional, cell-based. The settings on record: dose 5-10 µM.
The test system of series [3] is MG-63. Kind of series: Cytotoxicity against human MG-63 cells assessed as inhibition of cell growth incubated for 48 hrs by MTT assay. In kind it is functional, cell-based. The settings on record: MG-63, 48 h.
Series [4] concerns RKO. As to the kind of experiment: Cytotoxicity against human RKO cells assessed as inhibition of cell growth incubated for 48 hrs by MTT assay. In kind it is functional, cell-based.
Series [5] has as its system MDA-MB-231. Kind of series: Induction of apoptosis in human MDA-MB-231 cells assessed as late apoptotic cells at 10 uM incubated for 24 hrs by annexin V-FITC/PI staining based flow cytometry analysis (reference value: 0.2%). In kind it is functional.
Series [6] deals with MDA-MB-231. Kind of series: Induction of apoptosis in human MDA-MB-231 cells assessed as early apoptotic cells at 10 uM incubated for 24 hrs by annexin V-FITC/PI staining based flow cytometry analysis (reference value: 1.4%). The format is functional.
In series [7] the test system is PC-3. Kind of series: Cytotoxicity against human PC-3 cells assessed as inhibition of cell growth incubated for 48 hrs by MTT assay. The format is functional, cell-based. Conditions: PC-3, 48 h.
Series [8] has as its system MDA-MB-231. As to the kind of experiment: Induction of apoptosis in human MDA-MB-231 cells assessed as viable cells at 10 uM incubated for 24 hrs by annexin V-FITC/PI staining based flow cytometry analysis (reference value: 98.4%). Conditions: read-out: Activity. In kind it is functional.
Series [9] has as its system Mitochondrial membrane. Kind of series: Induction of mitochondrial membrane potential depolarization in human MDA-MB-231 cells at 5 to 10 uM incubated for 24 hrs by JC-1 dye based flow cytometric analysis. The settings on record: dose 5-10 µM.
Series [10] has as its system MDA-MB-231. Kind of series: Induction of apoptosis in human MDA-MB-231 cells assessed as necrotic cells at 10 uM incubated for 24 hrs by annexin V-FITC/PI staining based flow cytometry analysis (reference value: 0.0%). The format is functional.
Series [11] concerns MDA-MB-231. Kind of series: Cytotoxicity against human MDA-MB-231 cells assessed as inhibition of cell growth incubated for 48 hrs by MTT assay. In kind it is functional, cell-based. The settings on record: MDA-MB-231, 48 h.
Series [12] is described as follows: Cytotoxicity against HEK cells assessed as inhibition of cell growth incubated for 48 hrs by MTT assay. The format is toxicity, cell-based. The settings on record: human.
The test system of series [13] is MDA-MB-231. Kind of series: Induction of apoptosis in human MDA-MB-231 cells assessed as late apoptotic cells at 5 uM incubated for 24 hrs by annexin V-FITC/PI staining based flow cytometry analysis (reference value: 0.2%). In kind it is functional.
The subject of series [14] is MDA-MB-231. Kind of series: Induction of apoptosis in human MDA-MB-231 cells assessed as early apoptotic cells at 5 uM incubated for 24 hrs by annexin V-FITC/PI staining based flow cytometry analysis (reference value: 1.4%). In kind it is functional.
Series [15] in a line: Selectivity ratio of IC50 for HEK cells to IC50 for human MDA-MB-231 cells. The format is toxicity. The settings on record: HEK cells versus MDA-MB-231 cells, read-out: Ratio IC50.
Series [16] deals with T1, Tubulin (Homo sapiens) (UniProt P68371+Q9H4B7+P0DPH7+P68366+Q13509+Q71U36+P04350+Q3ZCM7+P07437+P68363+Q9BQE3+Q6PEY2+Q13885+Q9BVA1+Q9BUF5). As to the kind of experiment: Disruption of microtubule network in human MDA-MB-231 cells assessed as decrease in beta-tubulin expression at 5 to 10 uM incubated for 24 hrs by immunofluorescence staining based confocal microscopic analysis. The settings on record: dose 5-10 µM. The format is cell-based.

The nature of series [17]: Selectivity ratio of IC50 for HEK cells to IC50 for human PC-3 cells. In kind it is toxicity. Conditions: HEK cells versus PC-3 cells, read-out: Ratio IC50.
In series [18] the target is T1, Tubulin (Homo sapiens). As to the kind of experiment: Disruption of microtubule network in human MDA-MB-231 cells assessed as decrease in beta-tubulin expression incubated for 24 hrs by immunofluorescence staining based confocal microscopic analysis. In kind it is cell-based. The settings on record: dose 5-10 µM.
Series [19] concerns MDA-MB-231. Kind of series: Induction of apoptosis in human MDA-MB-231 cells assessed as viable cells at 5 uM incubated for 24 hrs by annexin V-FITC/PI staining based flow cytometry analysis (reference value: 98.4%). In kind it is functional. Conditions: read-out: Activity.
A short description of series [20]: Selectivity ratio of IC50 for HEK cells to IC50 for human HepG2 cells. The format is toxicity. The settings on record: HEK cells versus HepG2 cells, read-out: Ratio IC50.
Series [21] deals with MDA-MB-231. Kind of series: Induction of apoptosis in human MDA-MB-231 cells assessed as necrotic cells at 5 uM incubated for 24 hrs by annexin V-FITC/PI staining based flow cytometry analysis (reference value: 0.0%). In kind it is functional.

Activity calls are given as the source filed them. No cut-off for these calls is given here. Where only a bound is given, the exact number is not on record here.

With `COC(=O)Nc1nc2cc(C(=O)c3cccs3)ccc2[nH]1` [NOCODAZOLE], the IC50 was found to be 2.15 µM in [1]; 1.25 µM in series [3]; 2.56 µM in [4]; 2.89 µM in series [7]; 3.2 µM in [11]. Further, the result in [2] and in [9] was Active. Besides, the results for the Activity in series [5], in series [6] and in [10] were 48.3%, 5.6% and 0%, respectively. Also, in series [8], the viability at 10 µM was found to be 46%.
With `COc1ccc(C(=O)/C=C/c2nc(-c3ccc(Cl)cc3)n3ccccc23)cc1OC`, the IC50 in series [1], in series [3], in series [4], in series [7] and in series [11] was more than 50 µM in each case.
As to `O=C(/C=C/c1nc(-c2ccc(F)cc2)n2ccccc12)c1ccc(F)c(F)c1`, the IC50 in series [1] was more than 50 µM; in series [3], 11.6 µM; in series [4], more than 50 µM; in [7], more than 50 µM; in series [11], more than 50 µM.
For `COc1ccc(-c2nc(/C=C/C(=O)c3ccc(OC)c(OC)c3)c3ccccn23)cc1`, the IC50 in series [1] was more than 50 µM; in series [3], 20.5 µM; in series [4], more than 50 µM; in series [7] it was more than 50 µM; in series [11], more than 50 µM.
Regarding `COc1ccc(C(=O)/C=C/c2nc(-c3ccccc3)n3ccccc23)cc1OC`, the IC50 in series [1] is more than 50 µM; in series [3] it was 56.3 µM; in series [4], more than 50 µM; in series [7], more than 50 µM; in series [11] it was more than 50 µM.
For `O=C(/C=C/c1nc(-c2ccccc2)n2ccccc12)c1ccc(F)c(F)c1`, the 50% inhibitory concentration (IC50) is more than 50 µM in [1]; 85.2 µM in series [3]; more than 50 µM in series [4]; more than 50 µM in series [7]; more than 50 µM in [11].
`O=C(/C=C/c1nc(-c2ccc(Cl)cc2)n2ccccc12)c1ccc(F)c(F)c1`: the half-inhibitory concentration (IC50) in series [1], in series [3], in series [4], in [7] and in series [11] was more than 50 µM each time.
In the case of `COc1ccc(C(=O)/C=C/c2nc(-c3ccc(C(F)(F)F)cc3)n3ccccc23)cc1OC`, the IC50 in series [1], in series [3], in [4], in series [7] and in series [11] was more than 50 µM throughout.
Consider `O=C(/C=C/c1nc(-c2ccc(F)cc2)n2ccccc12)c1ccc(Cl)c(Cl)c1`, for which the IC50 is more than 50 µM in series [1]; 10.2 µM in series [3]; more than 50 µM in series [4]; more than 50 µM in [7]; more than 50 µM in series [11].
For `O=C(/C=C/c1nc(-c2ccc(C(F)(F)F)cc2)n2ccccc12)c1ccc(F)c(F)c1`, the IC50 in series [1], in series [3], in [4], in [7] and in series [11] was more than 50 µM throughout.
For `COc1cc(C(=O)/C=C/c2nc(-c3ccc(F)cc3)n3ccccc23)cc(OC)c1OC`, the IC50 in series [1], in [3], in series [4], in series [7] and in series [11] was more than 50 µM in each case.
For the molecule `COc1ccc(-c2nc(/C=C/C(=O)c3cc(OC)c(OC)c(OC)c3)c3ccccn23)cc1`, the IC50 in [1] was more than 50 µM; in series [3], 21.3 µM; in series [4], more than 50 µM; in [7] it was more than 50 µM; in [11], more than 50 µM.
Take `O=C(/C=C/c1nc(-c2ccccc2)n2ccccc12)c1ccc(Cl)c(Cl)c1`: the IC50 in [1] is more than 50 µM; in series [3] it was 45.6 µM; in [4], more than 50 µM; in series [7] it was more than 50 µM; in series [11], more than 50 µM.
Consider `COc1ccc(-c2nc(/C=C/C(=O)c3ccc(F)c(F)c3)c3ccccn23)cc1`, for which the concentration for half-maximal inhibition (IC50) in series [1] was more than 50 µM; in [3], 32.6 µM; in series [4], more than 50 µM; in [7], more than 50 µM; in [11], more than 50 µM.
As for `COc1cc(C(=O)/C=C/c2nc(-c3ccc(Cl)cc3)n3ccccc23)cc(OC)c1OC`, the half-maximal inhibitory concentration (IC50) at 48 h in series [12] was 50 µM. Further, the half-inhibitory concentration (IC50) was found to be 20.8 µM in series [1]; 6.23 µM in series [3]; 18.8 µM in series [4]; 17.9 µM in series [7]; 4.23 µM in series [11]. Moreover, the Activity in series [13] was 5.5%; in [14] it was 3.8%; in [5], 13.9%; in [18], “Dose-dependent-effect”; in [6] it was 18.6%; in [21] it was 0%. Besides, the Activity in series [10] is given as 0.3%. Besides, the result in series [2], in [16] and in series [9] was Active. Further, the selectivity ratio in series [15] is 11; in series [17], 3; in [20], 2. For the same molecule, the viability at 10 µM in [8] was found to be 67.2%. In series [19], the viability at 5 µM stood at 90.6%.
As to `O=C(/C=C/c1nc(-c2ccc(C(F)(F)F)cc2)n2ccccc12)c1ccc(Cl)c(Cl)c1`, the concentration for half-maximal inhibition (IC50) in [1], in series [3], in series [4], in series [7] and in series [11] was more than 50 µM throughout.
For the molecule `COc1cc(C(=O)/C=C/c2nc(-c3ccc(C(F)(F)F)cc3)n3ccccc23)cc(OC)c1OC`, the IC50 in [1], in [3], in series [4], in [7] and in series [11] was more than 50 µM throughout.
For the molecule `O=C(/C=C/c1nc(-c2ccc(Cl)cc2)n2ccccc12)c1ccc(Cl)c(Cl)c1`, in series [12], the IC50 at 48 h came out at 62 µM. In addition, the IC50 was found to be 4.57 µM in series [1]; 7.89 µM in [3]; 7.83 µM in series [4]; 14.9 µM in [7]; 3.26 µM in [11]. Further, the Activity was 26.9% in series [13]; 5.1% in series [14]; 29.9% in series [5]; “Dose-dependent-effect” in series [18]; 21.2% in series [6]; 1.6% in [21]. The Activity in series [10] stood at 0.3%. For the same molecule, the outcome in series [2], in [16] and in [9] was Active. For the same molecule, the selectivity ratio in series [15] is 19; in series [17], 4; in series [20] it was 13. Also, in [8], the viability at 10 µM is 48.6%. In addition, the viability at 5 µM in [19] was determined as 66.5%.
Regarding `COc1ccc(C(=O)/C=C/c2nc(-c3ccc(F)cc3)n3ccccc23)cc1OC`, the IC50 in series [1], in [3], in series [4], in series [7] and in [11] was more than 50 µM each time.
On to `COc1ccc(-c2nc(/C=C/C(=O)c3ccc(Cl)c(Cl)c3)c3ccccn23)cc1`, for which the IC50 is more than 50 µM in series [1]; 46.3 µM in series [3]; more than 50 µM in [4]; more than 50 µM in series [7]; more than 50 µM in series [11].
For the molecule `COc1cc(C(=O)/C=C/c2nc(-c3ccccc3)n3ccccc23)cc(OC)c1OC`, the IC50 in [1] is 13.6 µM; in series [3] it was 12.6 µM; in series [4], more than 50 µM; in [7] it was more than 50 µM; in series [11], 12.3 µM.
